Assay results published in ChEMBL document CHEMBL1144455, “A small molecule-kinase interaction map for clinical kinase inhibitors” (Nat Biotechnol, 2005).

Legend:
[1] = molecular target: Tyrosine-protein kinase BTK (Homo sapiens, UniProt Q06187)
[2] = molecular target: Receptor tyrosine-protein kinase erbB-2 (Homo sapiens, UniProt P04626)
[3] = molecular target: STE20-like serine/threonine-protein kinase (Homo sapiens, UniProt Q9H2G2)
[4] = molecular target: Tyrosine-protein kinase Yes (Homo sapiens, UniProt P07947)
[5] = molecular target: T1, Serine/threonine-protein kinase 36 (Homo sapiens, UniProt Q9NRP7)
T1 sequence (Q9NRP7 whole entry): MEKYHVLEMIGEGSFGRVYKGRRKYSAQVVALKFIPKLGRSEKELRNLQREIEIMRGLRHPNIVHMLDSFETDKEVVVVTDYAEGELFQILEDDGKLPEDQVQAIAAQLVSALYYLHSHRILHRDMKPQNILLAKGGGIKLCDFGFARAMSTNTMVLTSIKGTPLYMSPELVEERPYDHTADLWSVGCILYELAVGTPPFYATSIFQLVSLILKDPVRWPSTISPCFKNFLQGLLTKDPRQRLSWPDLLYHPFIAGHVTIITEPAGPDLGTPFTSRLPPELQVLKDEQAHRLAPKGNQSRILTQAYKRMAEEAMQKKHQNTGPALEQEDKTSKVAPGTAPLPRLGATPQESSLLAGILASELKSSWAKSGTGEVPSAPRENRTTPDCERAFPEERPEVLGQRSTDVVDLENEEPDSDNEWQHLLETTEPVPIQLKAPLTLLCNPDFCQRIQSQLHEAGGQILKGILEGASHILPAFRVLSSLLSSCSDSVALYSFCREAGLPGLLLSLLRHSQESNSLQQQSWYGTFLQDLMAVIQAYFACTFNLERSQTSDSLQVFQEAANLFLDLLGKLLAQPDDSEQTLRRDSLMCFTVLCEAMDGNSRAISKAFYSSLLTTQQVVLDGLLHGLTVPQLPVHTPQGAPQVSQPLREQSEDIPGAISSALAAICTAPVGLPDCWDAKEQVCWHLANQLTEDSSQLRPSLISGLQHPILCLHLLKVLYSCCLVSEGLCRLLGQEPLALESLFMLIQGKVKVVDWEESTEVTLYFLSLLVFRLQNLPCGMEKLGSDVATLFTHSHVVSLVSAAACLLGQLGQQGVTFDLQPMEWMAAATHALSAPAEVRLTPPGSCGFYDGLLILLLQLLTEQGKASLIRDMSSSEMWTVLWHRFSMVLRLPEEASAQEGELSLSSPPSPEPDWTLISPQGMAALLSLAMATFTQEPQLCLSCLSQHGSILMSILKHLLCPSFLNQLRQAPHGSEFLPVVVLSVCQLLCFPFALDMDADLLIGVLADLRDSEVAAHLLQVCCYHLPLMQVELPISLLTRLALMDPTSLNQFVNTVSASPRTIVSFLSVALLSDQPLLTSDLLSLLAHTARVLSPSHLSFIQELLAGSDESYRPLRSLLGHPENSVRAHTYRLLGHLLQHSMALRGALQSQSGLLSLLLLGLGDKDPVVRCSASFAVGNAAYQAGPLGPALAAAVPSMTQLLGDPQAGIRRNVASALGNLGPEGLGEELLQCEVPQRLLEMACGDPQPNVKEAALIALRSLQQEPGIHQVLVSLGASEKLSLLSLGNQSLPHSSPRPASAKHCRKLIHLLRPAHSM

[6] = molecular target: TRAF2 and NCK-interacting protein kinase (Homo sapiens, UniProt Q9UKE5)
[7] = molecular target: T2, Mitogen-activated protein kinase 12 (Homo sapiens, UniProt P53778)
T2 sequence (P53778 whole entry): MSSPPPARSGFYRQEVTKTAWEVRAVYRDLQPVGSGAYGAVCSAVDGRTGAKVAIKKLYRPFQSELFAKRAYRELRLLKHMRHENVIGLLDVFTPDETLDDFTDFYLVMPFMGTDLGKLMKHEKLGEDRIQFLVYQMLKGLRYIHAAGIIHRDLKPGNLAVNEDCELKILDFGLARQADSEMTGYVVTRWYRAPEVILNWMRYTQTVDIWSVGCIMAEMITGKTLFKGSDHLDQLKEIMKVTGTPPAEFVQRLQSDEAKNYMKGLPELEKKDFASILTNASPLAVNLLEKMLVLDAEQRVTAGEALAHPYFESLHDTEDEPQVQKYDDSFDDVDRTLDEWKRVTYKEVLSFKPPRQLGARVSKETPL

[8] = molecular target: T3, Serine/threonine-protein kinase PLK4 (Homo sapiens, UniProt O00444)
T3 sequence (O00444 whole entry): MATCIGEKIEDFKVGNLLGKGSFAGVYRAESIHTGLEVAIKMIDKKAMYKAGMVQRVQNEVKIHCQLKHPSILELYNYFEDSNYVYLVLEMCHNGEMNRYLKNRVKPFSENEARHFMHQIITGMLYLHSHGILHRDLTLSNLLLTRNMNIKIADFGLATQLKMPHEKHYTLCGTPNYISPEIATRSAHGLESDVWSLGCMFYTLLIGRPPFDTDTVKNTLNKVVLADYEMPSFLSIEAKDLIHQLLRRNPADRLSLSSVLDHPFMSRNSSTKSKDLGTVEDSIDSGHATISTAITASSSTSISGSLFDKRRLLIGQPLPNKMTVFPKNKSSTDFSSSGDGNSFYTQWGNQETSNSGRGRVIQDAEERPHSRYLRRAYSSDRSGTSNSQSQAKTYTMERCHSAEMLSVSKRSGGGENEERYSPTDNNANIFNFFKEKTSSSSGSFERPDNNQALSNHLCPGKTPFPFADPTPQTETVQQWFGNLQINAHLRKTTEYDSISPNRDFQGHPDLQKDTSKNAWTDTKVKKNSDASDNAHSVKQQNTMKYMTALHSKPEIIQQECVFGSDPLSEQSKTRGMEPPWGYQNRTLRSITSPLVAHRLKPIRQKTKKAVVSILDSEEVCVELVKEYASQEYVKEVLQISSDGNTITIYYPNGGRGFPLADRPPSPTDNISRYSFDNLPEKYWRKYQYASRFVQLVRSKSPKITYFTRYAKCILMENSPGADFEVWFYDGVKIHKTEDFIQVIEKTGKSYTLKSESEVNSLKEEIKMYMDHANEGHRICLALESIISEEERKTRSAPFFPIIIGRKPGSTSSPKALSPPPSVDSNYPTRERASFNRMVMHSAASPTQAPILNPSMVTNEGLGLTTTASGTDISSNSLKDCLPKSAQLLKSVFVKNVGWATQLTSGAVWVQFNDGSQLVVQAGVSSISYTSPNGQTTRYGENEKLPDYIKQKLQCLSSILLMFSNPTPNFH

Sequence of STE20-like serine/threonine-protein kinase (Q9H2G2 whole entry): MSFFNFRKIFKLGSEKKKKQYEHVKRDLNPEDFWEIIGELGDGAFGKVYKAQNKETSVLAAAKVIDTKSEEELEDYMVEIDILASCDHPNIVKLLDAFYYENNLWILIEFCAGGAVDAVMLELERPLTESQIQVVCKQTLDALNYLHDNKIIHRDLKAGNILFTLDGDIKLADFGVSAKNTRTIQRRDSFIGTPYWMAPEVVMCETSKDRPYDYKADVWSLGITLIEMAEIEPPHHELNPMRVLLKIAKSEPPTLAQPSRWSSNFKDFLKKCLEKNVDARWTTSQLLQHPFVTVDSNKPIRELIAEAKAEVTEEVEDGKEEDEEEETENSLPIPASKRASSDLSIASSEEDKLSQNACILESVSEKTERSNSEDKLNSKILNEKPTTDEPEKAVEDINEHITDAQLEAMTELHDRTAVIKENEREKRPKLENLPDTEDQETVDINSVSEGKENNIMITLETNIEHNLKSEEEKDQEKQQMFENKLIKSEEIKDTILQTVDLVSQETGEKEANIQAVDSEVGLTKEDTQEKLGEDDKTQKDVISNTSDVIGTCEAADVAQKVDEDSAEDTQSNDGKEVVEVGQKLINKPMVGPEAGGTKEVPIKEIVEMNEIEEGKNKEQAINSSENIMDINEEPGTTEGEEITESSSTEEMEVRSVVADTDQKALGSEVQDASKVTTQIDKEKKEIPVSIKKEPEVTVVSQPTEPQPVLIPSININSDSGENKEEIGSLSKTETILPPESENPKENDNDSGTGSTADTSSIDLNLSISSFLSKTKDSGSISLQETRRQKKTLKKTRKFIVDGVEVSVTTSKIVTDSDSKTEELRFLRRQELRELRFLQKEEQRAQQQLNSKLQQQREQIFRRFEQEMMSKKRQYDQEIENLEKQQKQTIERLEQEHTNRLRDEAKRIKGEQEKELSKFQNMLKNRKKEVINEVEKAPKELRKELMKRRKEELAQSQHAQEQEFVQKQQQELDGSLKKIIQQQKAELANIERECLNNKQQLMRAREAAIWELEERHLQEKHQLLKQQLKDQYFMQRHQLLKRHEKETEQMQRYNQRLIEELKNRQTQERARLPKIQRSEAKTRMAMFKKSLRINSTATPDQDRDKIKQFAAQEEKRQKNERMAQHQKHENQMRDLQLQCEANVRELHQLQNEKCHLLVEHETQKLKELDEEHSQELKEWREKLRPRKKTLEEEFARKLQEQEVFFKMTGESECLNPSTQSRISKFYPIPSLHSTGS
Sequence of TRAF2 and NCK-interacting protein kinase (Q9UKE5 whole entry): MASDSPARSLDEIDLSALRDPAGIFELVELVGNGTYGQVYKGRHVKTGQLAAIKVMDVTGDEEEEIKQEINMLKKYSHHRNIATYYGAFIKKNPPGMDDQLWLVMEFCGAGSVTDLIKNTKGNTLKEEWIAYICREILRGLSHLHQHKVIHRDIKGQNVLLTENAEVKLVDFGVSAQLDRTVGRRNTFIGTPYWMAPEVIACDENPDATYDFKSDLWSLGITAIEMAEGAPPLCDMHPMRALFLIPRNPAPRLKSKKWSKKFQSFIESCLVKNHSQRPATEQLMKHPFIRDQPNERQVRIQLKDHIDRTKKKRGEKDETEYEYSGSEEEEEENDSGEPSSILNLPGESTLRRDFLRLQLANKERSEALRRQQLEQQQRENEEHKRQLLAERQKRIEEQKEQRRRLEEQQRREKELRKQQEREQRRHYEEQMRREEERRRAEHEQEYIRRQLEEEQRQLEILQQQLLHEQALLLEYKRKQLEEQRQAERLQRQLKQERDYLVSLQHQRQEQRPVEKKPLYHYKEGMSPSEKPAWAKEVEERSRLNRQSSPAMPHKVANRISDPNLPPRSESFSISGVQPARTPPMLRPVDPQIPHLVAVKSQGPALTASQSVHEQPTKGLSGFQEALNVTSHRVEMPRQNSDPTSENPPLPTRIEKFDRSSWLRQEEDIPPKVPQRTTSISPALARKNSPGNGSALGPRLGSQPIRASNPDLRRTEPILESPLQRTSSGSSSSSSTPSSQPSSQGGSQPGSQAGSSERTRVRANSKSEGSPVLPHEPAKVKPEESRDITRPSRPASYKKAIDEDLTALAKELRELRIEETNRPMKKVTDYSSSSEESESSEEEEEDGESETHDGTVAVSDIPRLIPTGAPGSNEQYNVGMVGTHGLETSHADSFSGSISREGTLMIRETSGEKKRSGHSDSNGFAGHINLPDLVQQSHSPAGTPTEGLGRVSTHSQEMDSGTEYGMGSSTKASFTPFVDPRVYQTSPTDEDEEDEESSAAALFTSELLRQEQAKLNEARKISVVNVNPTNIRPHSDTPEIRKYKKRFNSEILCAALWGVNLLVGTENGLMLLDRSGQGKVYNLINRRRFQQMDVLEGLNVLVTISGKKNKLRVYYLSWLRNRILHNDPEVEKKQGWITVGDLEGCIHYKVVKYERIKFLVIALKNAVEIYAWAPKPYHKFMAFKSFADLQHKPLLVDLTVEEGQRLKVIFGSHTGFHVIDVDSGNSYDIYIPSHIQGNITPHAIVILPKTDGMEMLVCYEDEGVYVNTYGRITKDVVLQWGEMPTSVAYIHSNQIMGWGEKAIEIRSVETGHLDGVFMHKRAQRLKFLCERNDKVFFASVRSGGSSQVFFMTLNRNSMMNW
Sequence of Receptor tyrosine-protein kinase erbB-2 (P04626 whole entry): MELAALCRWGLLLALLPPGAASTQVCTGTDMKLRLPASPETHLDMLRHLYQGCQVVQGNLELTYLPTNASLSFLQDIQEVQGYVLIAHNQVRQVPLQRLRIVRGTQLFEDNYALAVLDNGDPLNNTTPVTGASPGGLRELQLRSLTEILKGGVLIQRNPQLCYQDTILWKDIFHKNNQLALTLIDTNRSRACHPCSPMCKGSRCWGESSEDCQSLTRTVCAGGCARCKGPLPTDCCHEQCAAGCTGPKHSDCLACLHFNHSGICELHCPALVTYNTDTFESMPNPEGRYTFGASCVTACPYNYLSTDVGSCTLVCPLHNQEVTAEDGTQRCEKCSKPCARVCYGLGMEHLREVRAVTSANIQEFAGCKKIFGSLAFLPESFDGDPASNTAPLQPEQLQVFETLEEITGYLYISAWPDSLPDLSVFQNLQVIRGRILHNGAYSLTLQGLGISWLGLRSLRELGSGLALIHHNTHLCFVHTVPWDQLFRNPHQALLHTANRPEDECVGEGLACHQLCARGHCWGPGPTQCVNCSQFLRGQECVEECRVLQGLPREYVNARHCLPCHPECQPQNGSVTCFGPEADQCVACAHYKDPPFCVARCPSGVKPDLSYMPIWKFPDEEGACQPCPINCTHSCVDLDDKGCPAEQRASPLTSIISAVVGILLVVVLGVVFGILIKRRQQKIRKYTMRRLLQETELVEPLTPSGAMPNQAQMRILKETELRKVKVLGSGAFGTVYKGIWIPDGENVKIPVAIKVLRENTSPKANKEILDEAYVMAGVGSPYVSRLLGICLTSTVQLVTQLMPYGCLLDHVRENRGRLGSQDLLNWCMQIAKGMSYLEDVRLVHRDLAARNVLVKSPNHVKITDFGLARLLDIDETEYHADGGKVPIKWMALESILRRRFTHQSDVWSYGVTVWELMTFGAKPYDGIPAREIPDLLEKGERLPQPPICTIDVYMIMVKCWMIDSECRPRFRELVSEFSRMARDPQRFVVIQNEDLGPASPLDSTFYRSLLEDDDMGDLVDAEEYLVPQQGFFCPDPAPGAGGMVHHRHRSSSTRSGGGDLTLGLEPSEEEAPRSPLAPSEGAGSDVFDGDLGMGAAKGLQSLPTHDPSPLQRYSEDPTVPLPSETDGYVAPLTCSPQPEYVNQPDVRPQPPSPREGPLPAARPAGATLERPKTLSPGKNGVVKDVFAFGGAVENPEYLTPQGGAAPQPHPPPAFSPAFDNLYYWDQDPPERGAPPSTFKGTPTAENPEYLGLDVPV
Sequence of Tyrosine-protein kinase Yes (P07947 whole entry): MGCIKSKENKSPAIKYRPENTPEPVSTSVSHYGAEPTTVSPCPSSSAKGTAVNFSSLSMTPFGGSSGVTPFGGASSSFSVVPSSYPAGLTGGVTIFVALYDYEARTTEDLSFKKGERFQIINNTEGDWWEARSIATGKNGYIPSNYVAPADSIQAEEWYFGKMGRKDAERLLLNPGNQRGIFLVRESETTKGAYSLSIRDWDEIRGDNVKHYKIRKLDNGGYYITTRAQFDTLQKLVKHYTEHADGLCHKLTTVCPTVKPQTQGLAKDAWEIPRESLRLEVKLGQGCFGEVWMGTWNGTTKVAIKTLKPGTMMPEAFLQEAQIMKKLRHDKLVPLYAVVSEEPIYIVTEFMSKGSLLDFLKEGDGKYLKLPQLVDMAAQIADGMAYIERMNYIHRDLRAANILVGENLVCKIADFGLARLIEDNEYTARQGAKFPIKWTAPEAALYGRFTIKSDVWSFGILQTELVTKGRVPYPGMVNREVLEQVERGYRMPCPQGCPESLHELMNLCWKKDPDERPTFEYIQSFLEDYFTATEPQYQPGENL
Sequence of Tyrosine-protein kinase BTK (Q06187 whole entry): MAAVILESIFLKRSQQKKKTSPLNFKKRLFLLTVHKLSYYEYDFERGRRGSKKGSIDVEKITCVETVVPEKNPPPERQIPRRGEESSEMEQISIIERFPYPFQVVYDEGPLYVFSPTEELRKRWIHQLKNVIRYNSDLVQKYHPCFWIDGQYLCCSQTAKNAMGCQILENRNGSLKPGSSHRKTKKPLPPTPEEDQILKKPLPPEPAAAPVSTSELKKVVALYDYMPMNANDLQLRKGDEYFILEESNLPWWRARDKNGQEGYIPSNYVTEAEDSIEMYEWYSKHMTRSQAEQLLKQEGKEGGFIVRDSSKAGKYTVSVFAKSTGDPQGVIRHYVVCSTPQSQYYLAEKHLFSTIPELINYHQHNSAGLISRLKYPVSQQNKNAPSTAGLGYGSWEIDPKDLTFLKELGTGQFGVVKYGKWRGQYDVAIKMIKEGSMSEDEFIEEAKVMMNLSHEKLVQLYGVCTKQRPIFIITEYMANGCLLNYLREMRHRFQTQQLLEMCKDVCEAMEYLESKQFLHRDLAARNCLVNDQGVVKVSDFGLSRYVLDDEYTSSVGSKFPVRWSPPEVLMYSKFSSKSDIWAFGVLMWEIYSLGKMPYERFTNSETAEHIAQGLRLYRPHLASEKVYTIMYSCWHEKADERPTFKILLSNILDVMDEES

| Structure (SMILES) | Kd [3] [nM] | Kd [6] [nM] | Kd [7] [nM] | further results |
| --- | --- | --- | --- | --- |
| CCOc1cc2ncc(C#N)c(Nc3ccc(F)c(Cl)c3)c2cc1NC(=O)/C=C/CN(C)C [PELITINIB] | 250 | – | – | Kd [1]: 1500 nM; Kd [2]: 77 nM; Kd [4]: 840 nM |
| Oc1ccc(-c2nc(-c3ccc(F)cc3)c(-c3ccncc3)[nH]2)cc1 [SB-202190] | – | 10000 | – | Kd [5]: 3800 nM |
| C[S+]([O-])c1ccc(-c2nc(-c3ccc(F)cc3)c(-c3ccncc3)[nH]2)cc1 (stereo unspecified) [SB-203580] | – | – | 1700 | – |
| Oc1c2ccccc2c2c3c(cccc13)N=N2 [SP-600125] | 2300 | 480 | 2400 | Kd [8]: 770 nM |
